{
  "source": "patent US8293979B2",
  "about": "“Weed controller metabolism proteins, genes, thereof and use of the same” (Sumitomo Chemical Company, Limited, priority 2001, dated 2012)",
  "key": {"[1]": {"system": "present invention protein (A24)", "assay": "Metabolism of compounds by the present invention protein (A24), reaction solution, HPLC", "assay_type": "in vitro ADME, Streptomyces rutgersensis IFO 15875T", "details": "12.5 ppm of compound, components A, B, C, 20 μl supernatant fraction of Example 65(2), 30° C. for 10 minutes"}, "Ivyleaf morningglory [2]": {"system": "Ivyleaf morningglory", "assay": "Herbicidal activity test, soil surface treatment", "assay_type": "in vivo, Ipomoea hederacea", "parameters": "key: 0: situations in which the condition of sprouting or vegetation at the time of examination of the plant utilized for the test was compared with and showed totally or substantially no difference with that of the untreated application; 10: situations in which the plant completely withered or the sprouting or vegetation was completely suppressed", "details": "500 g/ha, sprayed onto the surface of the soil after seeding, investigated after 19 days in a greenhouse", "description": "(§1) Soil was packed into a round plastic pot having a diameter of 10 cm and depth of 10 cm. Barnyardgrass, Blackgrass, Ivyleaf morningglory were seeded. Five (5) parts of the test compound, 6 parts of sorpol3005X (Toho Chemical Company) and 89 parts of xylene were well mixed to produce an emulsion. A certain amount thereof was diluted with water containing 0.1% (v/v) of a sticking agent at a proportion of 1000 L for 1 hectare and was spread uniformly with a spray-gun onto the surface of the soil. After cultivating the plants for 19 days in a greenhouse, the herbicidal activity was investigated.\n(§2) In the above Tables 3 and 4, the strength of the herbicidal activity is shown stepwise as 0, 1, 2, 3, 4, 5, 6, 7, 8, 9, and 10."}, "[3]": {"system": "present invention protein (A17)", "assay": "Detection of the ability to convert compound (II) to compound (III), E. coli pKSN608F extract", "assay_type": "in vitro ADME, Streptomyces griseus ATCC 10137", "details": "3 ppm of compound (II) labeled with 14C, components A, B, 10 minutes at 30° C.", "description": "(§3) Reaction solutions of 30 μl were prepared and maintained for 10 minutes at 30° C. The reaction solutions consisted of a 0.1M potassium phosphate buffer (pH7.0) containing 3 ppm of compound (II) labeled with ^14C, 2 mM of β-NADPH (hereinafter, referred to as “component A”) (Oriental Yeast Company), 2 mg/ml of a ferredoxin derived from spinach (hereinafter referred to as “component B”) (Sigma Company), 0.1 U/ml of ferredoxin reductase (hereinafter, referred to as “component C”) (Sigma Company) and 23 μl of the supernatant fraction recovered in Example 32(2). Similarly to Example 4(3), the reaction solutions after the maintenance were extracted with ethyl acetate and the extracted layers were TLC analyzed. […] A spot corresponding to compound (III) was detected from the reaction solution containing E. coli pKSN849AF extract. In contrast, such a spot was not detected from the reaction solution containing E. coli pKSN2 extract.\n(§4) Similarly to Example 32(3), reaction solutions of 30 μl were prepared and maintained for 10 minutes at 30° C. […] The reaction solutions after the maintenance were extracted with ethyl acetate and the extracted layers were TLC analyzed. […] A spot corresponding to compound (III) was detected from the reaction solution containing E. coli pKSN608F extract. In contrast, such a spot was not detected from the reaction solution containing E. coli pKSN2 extract."}, "[4]": {"system": "present invention protein (A16)", "assay": "Detection of the ability to convert compound (II) to compound (III), E. coli pKSN452F extract", "assay_type": "in vitro ADME, Streptomyces ornatus IFO 13069t", "details": "3 ppm of compound (II) labeled with 14C, components A, B, 10 minutes at 30° C.", "description": "as §3\nas §4, with “pKSN452F” for “pKSN608F”"}, "[5]": {"system": "present invention protein (A12)", "assay": "Detection of the ability to convert compound (II) to compound (III), E. coli pKSN1618F extract", "assay_type": "in vitro ADME, Streptomyces tsusimaensis IFO 13782", "details": "3 ppm of compound (II) labeled with 14C, components A, B, 10 minutes at 30° C.", "description": "as §3\nas §4, with “Reaction” for “Similarly to Example 32(3), reaction”, “pKSN1618F” for “pKSN608F”"}, "Ivyleaf morningglory [6]": {"system": "Ivyleaf morningglory", "assay": "Herbicidal activity test, foliage treatment", "assay_type": "in vivo, Ipomoea hederacea", "parameters": "key: 0: situations in which the condition of sprouting or vegetation at the time of examination of the plant utilized for the test was compared with and showed totally or substantially no difference with that of the untreated application; 10: situations in which the plant completely withered or the sprouting or vegetation was completely suppressed", "details": "sprayed onto the foliage of plants cultivated 10 days, investigated after 16 days in a greenhouse", "description": "as §1, with “seeded and cultivated in a greenhouse for 10 days.” for “seeded.”, “all sides” for “surface”, “foliage from above the plant cultivated in the above pot.” for “soil.”, “16” for “19”, “activity of the test compound” for “activity”\nas §2"}, "[7]": {"system": "present invention protein (A20)", "assay": "Detection of the ability to convert compound (II) to compound (III), E. coli pKSN1525F extract", "assay_type": "in vitro ADME, Streptomyces lanatus IFO 12787T", "details": "3 ppm of compound (II) labeled with 14C, components A, B, 10 minutes at 30° C.", "description": "as §3\nas §4, with “pKSN1525F” for “pKSN608F”"}},
  "data": [
    {"smiles": "Cn1c(C(F)(F)F)cc(=O)n(-c2cc(Oc3cccnc3OCC(=O)O)c(Cl)cc2F)c1=O", "note": "[compound (XII)]", "values": [
      {"measurement": "concentration of the compound detected from metabolism solution (A24) compared to control solution (A24)", "setting": "[1]", "result": "lower"}
    ]},
    {"smiles": "C[C@@H](Oc1cc(-n2c(=O)cc(C(F)(F)F)n(C)c2=O)c(F)cc1Cl)C(=O)O", "note": "[compound (II)]", "values": [
      {"measurement": "Herbicidal Activity Ivyleaf Morningglory", "setting": "Ivyleaf morningglory [2]", "result": 10},
      {"measurement": "spot corresponding to compound (III) labeled with 14C (TLC)", "setting": "[3]", "result": "detected"},
      {"measurement": "spot corresponding to compound (III) labeled with 14C (TLC)", "setting": "[4]", "result": "detected"},
      {"measurement": "spot corresponding to compound (III) labeled with 14C (TLC)", "setting": "[5]", "result": "detected"},
      {"measurement": "Herbicidal Activity Ivyleaf Morningglory", "setting": "Ivyleaf morningglory [6]; 125 g/ha", "result": 10},
      {"measurement": "Herbicidal Activity Ivyleaf Morningglory", "setting": "Ivyleaf morningglory [6]; 500 g/ha", "result": 10},
      {"measurement": "spot corresponding to compound (III) labeled with 14C (TLC)", "setting": "[7]", "result": "detected"}
    ]}
  ]
}
